Test results reported in the supplement of paper PMC10307832.

Tests used:
Test in all cases: relative viability (nuclei count vs DMSO), 5 days (fraction); higher = more cells survive
[1] = compound: C1=CC=C2C(=C1)N=C(S2)C(C#N)C3=NC(=NC=C3)NCCC4=CN=CC=C4 + O=C(CCCCCCC(=O)Nc1ccccc1)NO [Vorinostat] (partner 1 µM)
Summary of the method: (§1)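 One day after seeding in 1536-well plates, lung cancer cell lines were dosed by pin tool. Dosing was either single-drug or a fixed anchor-drug dose plus five library-drug doses (not always all listed) in √10 steps. After 5 days, nuclei were stained in one fix-and-stain step and counted on 4× images, and relative viability is the nuclei count of treated wells over that of vehicle wells, given as the median of duplicate plates.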

NVP-TAE684 + Tozasertib = compound: COc1cc(N2CCC(N3CCN(C)CC3)CC2)ccc1Nc1ncc(Cl)c(Nc2ccccc2S(=O)(=O)C(C)C)n1 [NVP-TAE684] + Cc1cc(Nc2cc(N3CCN(C)CC3)nc(Sc3ccc(NC(=O)C4CC4)cc3)n2)n[nH]1 [Tozasertib] (partner 0.1 µM)
Summary of the method: as §1

Vandetanib + Vorinostat = compound: COc1cc2/c(=N/c3ccc(Br)cc3F)nc[nH]c2cc1OCC1CCN(C)CC1 [Vandetanib] + O=C(CCCCCCC(=O)Nc1ccccc1)NO [Vorinostat] (partner 1 µM)
Summary of the method: as §1

NVP-TAE684 + Pictilisib = compound: COc1cc(N2CCC(N3CCN(C)CC3)CC2)ccc1Nc1ncc(Cl)c(Nc2ccccc2S(=O)(=O)C(C)C)n1 [NVP-TAE684] + CS(=O)(=O)N1CCN(Cc2cc3nc(-c4cccc5[nH]ncc45)nc(N4CCOCC4)c3s2)CC1 [Pictilisib] (partner 1 µM)
Summary of the method: as §1

Cell Line	relative viability ([1]; first compound 0.005 µM)	relative viability ([1]; first compound 0.01581 µM)	relative viability ([1]; first compound 0.05 µM)	relative viability ([1]; first compound 0.1581 µM)	relative viability ([1]; first compound 0.5 µM)	relative viability (NVP-TAE684 + Tozasertib; first compound 0.2 µM)	relative viability (NVP-TAE684 + Tozasertib; first compound 0.6325 µM)	relative viability (NVP-TAE684 + Tozasertib; first compound 2 µM)	relative viability (Vandetanib + Vorinostat; first compound 0.02 µM)	relative viability (Vandetanib + Vorinostat; first compound 0.06325 µM)	relative viability (Vandetanib + Vorinostat; first compound 0.2 µM)	relative viability (Vandetanib + Vorinostat; first compound 0.6325 µM)	relative viability (Vandetanib + Vorinostat; first compound 2 µM)	relative viability (NVP-TAE684 + Pictilisib; first compound 0.2 µM)	relative viability (NVP-TAE684 + Pictilisib; first compound 0.6325 µM)	relative viability (NVP-TAE684 + Pictilisib; first compound 2 µM)
201T	0.819	0.918	0.949	0.997	0.959	0.925	0.942	0.536	0.886	0.876	0.959	0.904	0.957	0.699	0.676	0.652
A549	–	–	–	–	–	–	–	–	–	–	–	–	–	0.534	0.407	0.108
A-427	0.9	0.86	0.811	0.902	0.887	0.175	0.187	0.144	0.809	0.85	0.903	0.842	0.911	0.735	–	0.652
ABC-1	1.13	–	1.03	1.33	0.985	0.17	0.147	0.127	1.05	1.11	1.02	0.96	0.773	0.546	0.493	0.298
BEN	0.496	0.58	0.548	0.643	0.577	0.513	0.492	0.392	0.6	0.56	0.613	0.552	0.569	0.467	0.472	0.527
CAL-12T	0.572	0.873	0.973	0.814	0.725	0.278	0.315	0.117	0.724	0.549	0.67	0.759	0.415	0.36	0.245	0.305
COR-L23	0.377	0.354	0.464	0.421	0.36	0.197	0.223	0.138	0.427	0.406	0.463	0.451	0.516	0.51	0.442	0.173
COR-L 105	0.648	0.908	0.884	0.893	0.876	0.364	0.315	0.23	0.922	0.807	0.829	0.822	0.537	0.307	0.281	0.264
Calu-6	–	–	–	–	–	–	–	–	–	–	–	–	–	0.954	0.741	0.444
ChaGo-K-1	0.584	0.809	0.702	0.863	0.724	0.214	0.206	0.16	0.735	0.765	0.767	0.797	0.798	1.14	0.424	0.776
EBC-1	–	–	–	–	–	–	–	–	–	–	–	–	–	0.364	0.348	0.212
EKVX	0.506	0.731	0.677	0.821	0.741	0.391	0.36	0.274	0.727	0.697	0.732	0.776	0.382	0.437	0.354	0.319
EMC-BAC-2	0.491	0.299	0.48	0.476	0.411	0.284	0.266	0.233	0.506	0.469	0.431	0.5	0.369	0.527	0.513	0.456
EPLC-272H	–	0.519	0.451	0.395	0.178	0.25	0.21	0.103	0.41	0.466	0.447	0.441	0.447	0.285	–	0.184
H3255	0.792	0.729	0.745	0.988	0.84	0.639	0.717	0.409	0.763	0.704	0.808	0.507	0.644	0.454	0.424	0.256
HARA	0.663	0.718	0.559	0.59	0.614	0.0965	0.0875	0.0538	0.496	0.477	0.521	0.616	0.524	0.459	0.238	0.275
HCC-15	0.959	0.971	0.816	0.851	0.775	0.368	0.389	0.176	0.832	0.796	0.782	0.89	0.816	0.718	0.738	0.737
HCC-44	1.19	1.14	1.09	1.15	1.02	1	0.848	0.338	1.11	1.09	1.21	1.1	1.15	0.658	0.602	0.412
HCC-78	0.485	0.391	0.509	0.524	0.42	0.361	0.429	0.217	0.5	0.481	0.418	0.505	0.346	0.207	0.138	0.172
HCC-366	0.336	0.361	0.385	0.519	0.365	0.108	0.124	0.0322	0.277	0.326	0.278	0.31	0.438	0.0975	0.105	0.113
HCC-827	0.675	0.931	0.838	1.07	0.922	0.462	0.41	0.715	0.788	0.82	0.815	0.369	0.327	1.14	0.84	0.968
HOP-62	0.49	0.626	0.453	0.685	0.642	0.397	0.386	0.294	0.553	0.574	0.651	0.686	0.811	0.815	0.75	0.754
IA-LM	0.742	1.09	1.02	1.11	0.613	–	–	–	1.06	0.969	0.935	1.06	0.874	0.253	0.176	0.202

Cell Line	relative viability ([1]; first compound 0.005 µM)	relative viability ([1]; first compound 0.01581 µM)	relative viability ([1]; first compound 0.05 µM)	relative viability ([1]; first compound 0.1581 µM)	relative viability ([1]; first compound 0.5 µM)	relative viability (NVP-TAE684 + Tozasertib; first compound 0.2 µM)	relative viability (NVP-TAE684 + Tozasertib; first compound 0.6325 µM)	relative viability (NVP-TAE684 + Tozasertib; first compound 2 µM)	relative viability (Vandetanib + Vorinostat; first compound 0.02 µM)	relative viability (Vandetanib + Vorinostat; first compound 0.06325 µM)	relative viability (Vandetanib + Vorinostat; first compound 0.2 µM)	relative viability (Vandetanib + Vorinostat; first compound 0.6325 µM)	relative viability (Vandetanib + Vorinostat; first compound 2 µM)	relative viability (NVP-TAE684 + Pictilisib; first compound 0.2 µM)	relative viability (NVP-TAE684 + Pictilisib; first compound 0.6325 µM)	relative viability (NVP-TAE684 + Pictilisib; first compound 2 µM)
LC-2-ad	0.621	0.704	0.676	0.823	0.612	0.448	0.377	0.286	0.686	0.673	0.714	0.709	0.462	0.333	0.578	0.344
LCLC-97TM1	0.608	0.694	0.724	0.725	0.624	0.184	0.224	0.0618	0.711	0.755	0.719	0.559	0.755	0.112	0.145	0.148
LCLC-103H	0.712	0.664	0.718	0.878	0.76	0.432	0.433	0.303	0.756	0.759	0.822	0.755	0.814	0.71	0.567	0.451
LK-2	0.294	0.278	0.369	0.333	0.355	0.154	0.191	0.179	0.31	0.311	0.341	0.265	0.365	0.649	0.472	0.343
LOU-NH91	0.907	0.826	0.769	1.03	0.837	0.622	0.576	0.475	0.942	0.806	0.559	0.883	0.886	0.635	0.462	0.481
LU99A	0.417	0.529	–	0.622	0.477	0.298	0.293	0.206	0.474	0.377	0.499	0.49	0.528	0.288	0.362	0.249
LXF-289	0.688	0.862	0.811	1	0.729	0.263	0.168	0.0842	0.806	0.766	0.768	0.848	0.708	0.717	0.812	0.578
NCI-H23	–	0.504	0.529	0.804	0.627	0.402	0.367	0.241	0.55	0.585	0.517	0.608	0.598	0.518	0.422	0.377
NCI-H322M	0.771	0.842	0.789	0.9	0.935	0.42	0.414	0.294	0.867	0.853	0.874	0.761	0.583	0.43	0.463	0.388
NCI-H358	0.568	0.642	0.557	0.708	0.558	0.0952	0.0896	0.0684	0.61	0.594	0.668	0.68	0.257	0.305	0.261	0.219
NCI-H441	0.587	0.84	0.818	0.789	0.643	0.608	0.554	0.266	0.781	0.702	0.8	0.767	0.821	0.515	0.459	0.321
NCI-H460	–	0.651	0.721	0.782	0.354	0.671	0.498	0.4	0.632	0.674	0.685	0.654	0.674	0.333	0.362	0.295
NCI-H520	0.532	0.858	0.667	0.826	0.707	0.408	0.466	0.358	0.7	0.706	0.739	0.677	0.639	0.337	0.3	0.228
NCI-H522	0.824	0.774	0.875	0.712	0.864	0.53	0.692	0.509	0.947	0.962	0.85	0.874	0.936	–	–	–
NCI-H596	0.463	0.446	0.716	0.654	0.676	1.17	0.883	0.861	1.37	0.562	0.657	0.666	0.693	0.396	0.372	0.335
NCI-H1299	–	–	–	–	–	–	–	–	–	–	–	–	–	0.601	0.707	0.364
NCI-H1563	–	–	–	–	–	–	–	–	–	–	–	–	–	0.597	0.63	0.495
NCI-H1623	–	–	–	–	–	0.442	0.427	0.393	–	–	–	–	–	–	–	–
NCI-H1648	–	0.448	–	0.622	0.417	0.413	0.458	0.262	0.473	0.506	0.596	0.375	0.627	–	–	–
NCI-H1703	–	–	–	–	–	–	–	–	–	–	–	–	–	0.225	0.243	0.172
NCI-H1792	–	–	–	–	–	–	–	–	–	–	–	–	–	0.227	0.256	0.232
NCI-H2342	0.621	0.811	0.737	0.776	0.756	0.572	0.485	0.297	0.754	0.674	0.785	0.739	0.645	–	–	–
SW 900	0.495	0.42	0.67	0.693	0.456	0.576	0.531	0.322	0.692	0.528	–	0.425	0.429	–	–	–
